Measured values published in PMC5218480 (PLoS ONE, 2017).

Test system: MV-4-11 cells
Assay: Gene expression microarray analysis (Affymetrix PrimeView) and GSEA
Format: cell-based, human
Design: RFU PODN (11730768_x_at) / Fold change /veh PODN (11730768_x_at) / RFU LINC00158 (11744669_a_at) / Fold change /veh LINC00158 (11744669_a_at) / RFU DUSP10 (11751237_a_at) / Fold change /veh DUSP10 (11751237_a_at) / RFU ID3 (11757404_x_at) / Fold change /veh ID3 (11757404_x_at) / RFU PLEKHG5 (11737974_s_at) / Fold change /veh PLEKHG5 (11737974_s_at) / RFU LRRC4B (11730491_at) / Fold change /veh LRRC4B (11730491_at) / RFU GIMAP4 (11747438_a_at) / Fold change /veh GIMAP4 (11747438_a_at) / RFU KRT8 (11758183_x_at) / Fold change /veh KRT8 (11758183_x_at) / RFU CNN1 (11734310_a_at) / Fold change /veh CNN1 (11734310_a_at) / RFU VPS37D (11726825_at) / Fold change /veh VPS37D (11726825_at) / RFU C10orf10 (11716522_x_at) / Fold change /veh C10orf10 (11716522_x_at) / RFU KIR2DL2 /// KIR2DL4 /// KIR2DL5A /// KIR2DL5B /// KIR2DS1 /// KIR2DS2 /// KIR2DS3 /// KIR2DS4 /// KIR3DL3 /// KIR3DL3 /// KIR3DS1 (11738374_at) / Fold change /veh KIR2DL2 /// KIR2DL4 /// KIR2DL5A /// KIR2DL5B /// KIR2DS1 /// KIR2DS2 /// KIR2DS3 /// KIR2DS4 /// KIR3DL3 /// KIR3DL3 /// KIR3DS1 (11738374_at) / RFU C1QL1 (11718748_at) / Fold change /veh C1QL1 (11718748_at) / RFU TMPRSS4 (11747572_a_at) / Fold change /veh TMPRSS4 (11747572_a_at) / RFU HAMP (11756126_x_at) / Fold change /veh HAMP (11756126_x_at) / RFU RNFT2 (11725882_a_at) / Fold change /veh RNFT2 (11725882_a_at) / RFU NR4A2 (11747474_a_at) / Fold change /veh NR4A2 (11747474_a_at) / RFU ABCC12 (11746883_a_at) / Fold change /veh ABCC12 (11746883_a_at) / RFU TMEM136 (11760407_x_at) / Fold change /veh TMEM136 (11760407_x_at) / RFU CLDN22 /// WWC2 (11732394_at) / Fold change /veh CLDN22 /// WWC2 (11732394_at) / RFU HLA-DPB1 (11760878_x_at) / Fold change /veh HLA-DPB1 (11760878_x_at) / RFU SPINT1 (11716480_a_at) / Fold change /veh SPINT1 (11716480_a_at) / RFU GAP43 (11754022_s_at) / Fold change /veh GAP43 (11754022_s_at) / RFU A4GNT (11735810_at) / Fold change /veh A4GNT (11735810_at) / RFU PRB3 (11715151_x_at) / Fold change /veh PRB3 (11715151_x_at) / RFU TUBB4B (11761932_at) / Fold change /veh TUBB4B (11761932_at) / RFU CAPN14 (11732068_a_at) / Fold change /veh CAPN14 (11732068_a_at) / RFU TMCC2 (11721928_a_at) / Fold change /veh TMCC2 (11721928_a_at) / RFU IRGQ (11745062_a_at) / Fold change /veh IRGQ (11745062_a_at) / RFU FAM174B (11720279_a_at) / Fold change /veh FAM174B (11720279_a_at) / RFU TMPRSS4 (11748680_a_at) / Fold change /veh TMPRSS4 (11748680_a_at) / RFU FAM212B (11763350_a_at) / Fold change /veh FAM212B (11763350_a_at) / RFU PLEKHG5 (11743358_a_at) / Fold change /veh PLEKHG5 (11743358_a_at) / RFU ZSCAN30 (11745921_a_at) / Fold change /veh ZSCAN30 (11745921_a_at) / RFU CMKLR1 (11741424_a_at) / Fold change /veh CMKLR1 (11741424_a_at) / RFU LOC101060620 /// MAPK8IP1 (11723275_at) / Fold change /veh LOC101060620 /// MAPK8IP1 (11723275_at) / RFU SPTSSB (11747773_x_at) / Fold change /veh SPTSSB (11747773_x_at) / RFU PRSS12 (11739890_at) / Fold change /veh PRSS12 (11739890_at) / RFU BIN1 (11741810_x_at) / Fold change /veh BIN1 (11741810_x_at) / RFU WNT11 (11732464_a_at) / Fold change /veh WNT11 (11732464_a_at) / RFU C10orf10 (11716521_a_at) / Fold change /veh C10orf10 (11716521_a_at) / RFU C5orf56 (11738089_at) / Fold change /veh C5orf56 (11738089_at) / RFU CYB561 (11721691_x_at) / Fold change /veh CYB561 (11721691_x_at) / RFU ANKRD19P (11752326_a_at) / Fold change /veh ANKRD19P (11752326_a_at) / RFU OR2T12 /// OR2T33 /// OR2T8 (11738714_s_at) / Fold change /veh OR2T12 /// OR2T33 /// OR2T8 (11738714_s_at) / RFU VCAN (11748164_a_at) / Fold change /veh VCAN (11748164_a_at) / RFU JSRP1 (11732532_at) / Fold change /veh JSRP1 (11732532_at) / RFU KRTAP10-11 (11738290_x_at) / Fold change /veh KRTAP10-11 (11738290_x_at) / RFU MYO3A (11730013_a_at) / Fold change /veh MYO3A (11730013_a_at) / RFU EBF3 (11725865_a_at) / Fold change /veh EBF3 (11725865_a_at) / RFU CAMK2N1 (11719241_x_at) / Fold change /veh CAMK2N1 (11719241_x_at) / RFU C5orf56 (11738088_a_at) / Fold change /veh C5orf56 (11738088_a_at) / RFU OLFML3 (11715873_a_at) / Fold change /veh OLFML3 (11715873_a_at) / RFU LOC100653217 /// NTM (11731650_a_at) / Fold change /veh LOC100653217 /// NTM (11731650_a_at) / RFU MAPK11 (11762145_a_at) / Fold change /veh MAPK11 (11762145_a_at) / RFU FIZ1 (11724087_x_at) / Fold change /veh FIZ1 (11724087_x_at) / RFU OASL (11726364_x_at) / Fold change /veh OASL (11726364_x_at) / RFU SOX15 (11748057_x_at) / Fold change /veh SOX15 (11748057_x_at) / RFU CD79A (11719716_a_at) / Fold change /veh CD79A (11719716_a_at) / RFU HIST1H1D (11736915_at) / Fold change /veh HIST1H1D (11736915_at) / RFU CASKIN2 (11723855_a_at) / Fold change /veh CASKIN2 (11723855_a_at) / RFU LOC730098 (11760151_x_at) / Fold change /veh LOC730098 (11760151_x_at) / RFU OR4N2 (11742367_at) / Fold change /veh OR4N2 (11742367_at) / RFU PRRT2 (11749266_a_at) / Fold change /veh PRRT2 (11749266_a_at) / RFU SNX32 (11753110_a_at) / Fold change /veh SNX32 (11753110_a_at) / RFU CDHR5 (11726645_a_at) / Fold change /veh CDHR5 (11726645_a_at) / RFU RCAN1 (11760418_a_at) / Fold change /veh RCAN1 (11760418_a_at) / RFU FAM167A (11723789_a_at) / Fold change /veh FAM167A (11723789_a_at) / RFU FAM26E (11764081_at) / Fold change /veh FAM26E (11764081_at) / RFU ISYNA1 (11749810_s_at) / Fold change /veh ISYNA1 (11749810_s_at) / RFU ACY1 (11761880_at) / Fold change /veh ACY1 (11761880_at) / RFU 11764098_at / Fold change /veh 11764098_at / RFU SAMD14 (11745864_x_at) / Fold change /veh SAMD14 (11745864_x_at) / RFU NPB (11741838_a_at) / Fold change /veh NPB (11741838_a_at) / RFU TMPRSS6 (11731388_a_at) / Fold change /veh TMPRSS6 (11731388_a_at) / RFU KRTAP10-2 (11738614_at) / Fold change /veh KRTAP10-2 (11738614_at) / RFU ARHGAP8 /// PRR5-ARHGAP8 (11727945_x_at) / Fold change /veh ARHGAP8 /// PRR5-ARHGAP8 (11727945_x_at) / RFU KRTAP5-7 /// NADSYN1 (11734609_at) / Fold change /veh KRTAP5-7 /// NADSYN1 (11734609_at) / RFU RASL12 (11751679_a_at) / Fold change /veh RASL12 (11751679_a_at) / RFU CDKN2B (11736163_a_at) / Fold change /veh CDKN2B (11736163_a_at) / RFU PRF1 (11729649_at) / Fold change /veh PRF1 (11729649_at) / RFU, ZNF638 /// ZNF638-IT1 / Fold change vs veh, ZNF638 /// ZNF638-IT1 / RFU, PANK3 / Fold change vs veh, PANK3 / RFU, SH3YL1 / Fold change vs veh, SH3YL1 / RFU, ZEB2 / Fold change vs veh, ZEB2 / RFU, NRIP1 / Fold change vs veh, NRIP1 / RFU, PTTG1IP / Fold change vs veh, PTTG1IP / RFU, CAPN2 / Fold change vs veh, CAPN2 / RFU, MED14 / Fold change vs veh, MED14 / RFU, SNORA58 / Fold change vs veh, SNORA58 / RFU, C1orf63 / Fold change vs veh, C1orf63 / RFU, LRRFIP1 / Fold change vs veh, LRRFIP1 / RFU, NDUFAF7 / Fold change vs veh, NDUFAF7 / RFU, SLC12A2 / Fold change vs veh, SLC12A2 / RFU, IBTK / Fold change vs veh, IBTK / RFU, ESF1 / Fold change vs veh, ESF1 / Fold change vs veh, TMEM50B / RFU, TAOK1 / Fold change vs veh, TAOK1 / RFU, ACBD3 / Fold change vs veh, ACBD3 / RFU, TMA16 / Fold change vs veh, TMA16 / RFU, RWDD3 / Fold change vs veh, RWDD3 / RFU, BCAT1 / Fold change vs veh, BCAT1 / RFU, EDEM3 / Fold change vs veh, EDEM3 / RFU, TMEM33 / Fold change vs veh, TMEM33 / RFU, WDR75 / Fold change vs veh, WDR75 / RFU, AHCTF1 / Fold change vs veh, AHCTF1 / RFU, TFRC / Fold change vs veh, TFRC / RFU, ZDHHC17 / Fold change vs veh, ZDHHC17 / RFU, NOM1 / Fold change vs veh, NOM1 / RFU, ARL8B / Fold change vs veh, ARL8B / RFU, ZBTB11 / Fold change vs veh, ZBTB11 / RFU, TAMM41 / Fold change vs veh, TAMM41 / RFU, KIAA1704 /// LOC100996395 / Fold change vs veh, KIAA1704 /// LOC100996395 / RFU, ING1 / Fold change vs veh, ING1 / RFU, TRMT61B / Fold change vs veh, TRMT61B / RFU, FUBP3 / Fold change vs veh, FUBP3 / RFU, TP53 / Fold change vs veh, TP53 / RFU, TNKS2 / Fold change vs veh, TNKS2 / RFU, ZFP14 / Fold change vs veh, ZFP14 / RFU, ACTR2 / Fold change vs veh, ACTR2 / RFU, PPP3R1 / Fold change vs veh, PPP3R1 / RFU, PIK3R1 / Fold change vs veh, PIK3R1 / RFU, HNRNPA1 / Fold change vs veh, HNRNPA1 / RFU, RNF170 / Fold change vs veh, RNF170 / RFU, ZNF28 / Fold change vs veh, ZNF28 / RFU, RNGTT / Fold change vs veh, RNGTT / RFU, OGT / Fold change vs veh, OGT / RFU, BRD1 / Fold change vs veh, BRD1 / RFU, MARS / Fold change vs veh, MARS / RFU, ZNF655 / Fold change vs veh, ZNF655 / RFU, FAHD1 / Fold change vs veh, FAHD1 / RFU, BDP1 / Fold change vs veh, BDP1 / RFU, LRRCC1 / Fold change vs veh, LRRCC1 / RFU, ARID1A / Fold change vs veh, ARID1A / RFU, ZNF146 / Fold change vs veh, ZNF146 / RFU, ZNF330 / Fold change vs veh, ZNF330 / RFU, GPN3 / Fold change vs veh, GPN3 / RFU, C9orf123 / Fold change vs veh, C9orf123 / RFU, N4BP2L2 / Fold change vs veh, N4BP2L2 / RFU, ARFIP1 / Fold change vs veh, ARFIP1 / RFU, FAM179B / Fold change vs veh, FAM179B / RFU, BCL10 / Fold change vs veh, BCL10 / RFU, UHRF1BP1L / Fold change vs veh, UHRF1BP1L / RFU, BET1 / Fold change vs veh, BET1 / RFU, CNOT2 / Fold change vs veh, CNOT2 / RFU, ZNF268 / Fold change vs veh, ZNF268 / Fold change vs veh, ZNF507 / RFU, DGCR2 / Fold change vs veh, DGCR2 / RFU, WDSUB1 / Fold change vs veh, WDSUB1 / Fold change vs veh, HSP90B1 /// MIR3652 / RFU, ADSS / Fold change vs veh, ADSS / RFU, GK / Fold change vs veh, GK / RFU, ZNF148 / Fold change vs veh, ZNF148 / RFU, TAF9 / Fold change vs veh, TAF9 / RFU, SLC1A5 / Fold change vs veh, SLC1A5 / RFU, SLMO2 / Fold change vs veh, SLMO2 / RFU, ABCC4 / Fold change vs veh, ABCC4 / RFU, LOC101060439 /// RAP1B / Fold change vs veh, LOC101060439 /// RAP1B / RFU, RFX7 / Fold change vs veh, RFX7 / RFU, GTPBP10 / Fold change vs veh, GTPBP10 / RFU, CNEP1R1 / Fold change vs veh, CNEP1R1 / RFU, BIVM-ERCC5 /// ERCC5 / Fold change vs veh, BIVM-ERCC5 /// ERCC5 / RFU, ILF3 / Fold change vs veh, ILF3 / RFU 11762660_at / Fold change /veh 11762660_at / RFU VCAN (11757783_s_at) / Fold change /veh VCAN (11757783_s_at) / RFU DDX43 (11728927_at) / Fold change /veh DDX43 (11728927_at) / RFU KRT8 (11758188_x_at) / Fold change /veh KRT8 (11758188_x_at) / RFU NKD1 (11759106_at) / Fold change /veh NKD1 (11759106_at) / RFU SRD5A1 (11742802_a_at) / Fold change /veh SRD5A1 (11742802_a_at) / RFU TPSAB1 /// TPSB2 (11721975_s_at) / Fold change /veh TPSAB1 /// TPSB2 (11721975_s_at) / RFU GSTM3 (11746129_a_at) / Fold change /veh GSTM3 (11746129_a_at) / RFU IL23R (11737362_x_at) / Fold change /veh IL23R (11737362_x_at) / RFU TMEM51 (11727254_a_at) / Fold change /veh TMEM51 (11727254_a_at) / RFU PIWIL2 (11732686_x_at) / Fold change /veh PIWIL2 (11732686_x_at) / RFU ORM1 (11744905_x_at) / Fold change /veh ORM1 (11744905_x_at) / RFU CCDC152 (11743942_at) / Fold change /veh CCDC152 (11743942_at) / RFU ECM1 (11717891_a_at) / Fold change /veh ECM1 (11717891_a_at) / RFU IL23R (11748794_a_at) / Fold change /veh IL23R (11748794_a_at) / RFU TNFAIP8L3 (11732012_x_at) / Fold change /veh TNFAIP8L3 (11732012_x_at) / RFU MBOAT4 (11741988_at) / Fold change /veh MBOAT4 (11741988_at) / RFU 11764193_at / Fold change /veh 11764193_at / RFU TMEM53 (11763286_at) / Fold change /veh TMEM53 (11763286_at) / RFU MAGEB2 (11727129_at) / Fold change /veh MAGEB2 (11727129_at) / RFU TMEM200A (11744735_a_at) / Fold change /veh TMEM200A (11744735_a_at) / RFU CCDC152 (11751479_a_at) / Fold change /veh CCDC152 (11751479_a_at) / RFU FAM211A (11726209_a_at) / Fold change /veh FAM211A (11726209_a_at) / RFU RGS16 (11746705_a_at) / Fold change /veh RGS16 (11746705_a_at) / RFU VCAN (11755009_s_at) / Fold change /veh VCAN (11755009_s_at) / RFU RHOB (11743442_s_at) / Fold change /veh RHOB (11743442_s_at) / RFU RGS16 (11720943_a_at) / Fold change /veh RGS16 (11720943_a_at) / RFU RGS16 (11720944_at) / Fold change /veh RGS16 (11720944_at) / RFU, VPS4B / Fold change vs veh, VPS4B / RFU, CREB1 / Fold change vs veh, CREB1 / RFU, DNAJC13 / Fold change vs veh, DNAJC13 / RFU, GNAQ / Fold change vs veh, GNAQ / RFU, CDK5R1 / Fold change vs veh, CDK5R1 / RFU, ZRANB3 / Fold change vs veh, ZRANB3 / RFU, CUL4A / Fold change vs veh, CUL4A / RFU, CCNY / Fold change vs veh, CCNY / RFU, UFL1 / Fold change vs veh, UFL1 / RFU, COG3 / Fold change vs veh, COG3 / RFU, DIAPH2 / Fold change vs veh, DIAPH2 / RFU, SKA2 / Fold change vs veh, SKA2 / RFU, AFF3 / Fold change vs veh, AFF3 / RFU, LMF1 / Fold change vs veh, LMF1 / RFU, IPO11 / Fold change vs veh, IPO11 / RFU, DFFB / Fold change vs veh, DFFB / RFU, FOXP1 / Fold change vs veh, FOXP1 / RFU, CARD8 / Fold change vs veh, CARD8 / RFU, STRN3 / Fold change vs veh, STRN3 / RFU, ADK / Fold change vs veh, ADK / RFU, RASSF2 / Fold change vs veh, RASSF2 / RFU, WIPF1 / Fold change vs veh, WIPF1 / RFU, LARP1B / Fold change vs veh, LARP1B / RFU, RASA1 / Fold change vs veh, RASA1 / RFU, RB1 / Fold change vs veh, RB1 / RFU, PPFIA1 / Fold change vs veh, PPFIA1 / RFU, MAT2A / Fold change vs veh, MAT2A / RFU, CCT5 / Fold change vs veh, CCT5 / RFU, WDR92 / Fold change vs veh, WDR92 / RFU, CUX1 / Fold change vs veh, CUX1 / RFU, TTC7A / Fold change vs veh, TTC7A / RFU, TMEM135 / Fold change vs veh, TMEM135 / RFU, DEPTOR / Fold change vs veh, DEPTOR / RFU, CPM / Fold change vs veh, CPM / RFU, DNAJB6 / Fold change vs veh, DNAJB6 / RFU, CACNA2D3 / Fold change vs veh, CACNA2D3 / RFU, DTX4 / Fold change vs veh, DTX4 / RFU, TFCP2 / Fold change vs veh, TFCP2 / RFU, GMCL1 /// GMCL1P1 / Fold change vs veh, GMCL1 /// GMCL1P1 / RFU, AEBP2 / Fold change vs veh, AEBP2 / RFU, SNHG1 /// SNORD22 /// SNORD25 /// SNORD26 /// SNORD27 /// SNORD28 /// SNORD29 /// SNORD31 / Fold change vs veh, SNHG1 /// SNORD22 /// SNORD25 /// SNORD26 /// SNORD27 /// SNORD28 /// SNORD29 /// SNORD31 / Fold change (Aza/veh), C12orf56 (ProbeSet 11735607_a_at) / Fold change (ACY-1035/veh), C12orf56 (ProbeSet 11735607_a_at) / Fold change (Aza/veh), FGFR1OP (ProbeSet 11751329_s_at) / Fold change (ACY-1035/veh), FGFR1OP (ProbeSet 11751329_s_at) / Fold change (Aza/veh), VPS36 (ProbeSet 11739960_a_at) / Fold change (ACY-1035/veh), VPS36 (ProbeSet 11739960_a_at) / RFU SYPL1 (11715823_x_at) / Fold change /veh SYPL1 (11715823_x_at) / RFU IGFBP7 (11715501_s_at) / Fold change /veh IGFBP7 (11715501_s_at) / RFU REEP3 (11722064_at) / Fold change /veh REEP3 (11722064_at) / RFU IGLL1 (11728026_x_at) / Fold change /veh IGLL1 (11728026_x_at): dose or concentration left out as unconfirmed
Details: ProbeSet 11759094_a_at; LIST D

## Nc1ncn([C@@H]2O[C@H](CO)[C@@H](O)[C@H]2O)c(=O)n1 [azacitidine]
  RFU, GNAQ: 421.57 RFU
